{
  "source": "patent US6197568A",
  "about": "(priority 1998, dated 2001)",
  "key": {"[1]": {"tested_on": "dengue 2 New Guinea C strain virus", "assay": "Infectivity assay, dengue virus infection of Vero cells (cytopathic effect)", "format": "cell-based, dengue 2 virus"}, "[2]": {"molecular_target": "T1, Recombinant dengue 2 virus envelope protein (Dengue virus type 2, UniProt P27914)", "T1 construct": "extending from the start codon to the beginning of the transmembrane region (nucleotides 1 to 1272); CD5 signal peptide (N); made in house; host or cells: COS-7 cells (transfected; purified from cell lysate on protein A)", "assay": "Envelope protein binding assay with competitive antagonists, Vero cells, flow cytometry", "format": "cell-based", "protocol": "Panels A-D: Competitive antagonists. Recombinant dengue 2 virus envelope protein was co-incubated with Vero cells in the presence of potential competitive antagonists, and the degree of binding was quantitated by flow cytometry. Abscissa: Competitive antagonist. Binding of envelope protein without antagonist is indicated by dengue Env column. Background binding (cells incubated with normal human IgG instead of envelope protein) is indicated by Control IgG column. Ordinate: Median fluorescence intensity derived from flow cytometry histograms for each sample.\nVero cells were detached from their culture surface without proteases (incubated in cation-free phosphate buffered saline (PBS, Gibco-BRL) with 5 mM EDTA, 10 min. 37° C., washed, and incubated with envelope protein (10 μg/ml) and competitive antagonists (10 μg/ml unless otherwise indicated) in cation containing PBS with 1% normal goat serum (Gibco-BRL), for 1 hour at 4° C. Cells were washed two times, incubated with R-phycoerythrin labeled Fab2 fragment of affinity purified goat antibody to human IgG Fc (5 μg/ml, Jackson Labs.) for 1 hour at 4° C., and washed two times. Cellular fluorescence and forward angle light scatter were quantitated by flow cytometry (FACScan, Becton Dickinson). A minimum of 10,000 cells was assessed from each treatment group. Data were accumulated only for viable cells; non-viable cells were excluded from analysis on the basis of low forward angle light scatter. Results were expressed as frequency histograms of fluorescence per cell. A value for median fluorescence intensity was derived from the fluorescence frequency histograms for each sample, and used to compare fluorescence between samples. In each experiment, controls consisted of untreated cells, cells incubated with only the secondary fluorochrome-labeled antibody, and cells incubated with normal human IgG followed by the secondary fluorochrome-labeled antibody.\nChondroitin sulfate (CS) from bovine trachea, dermatan sulfate (DS) from bovine mucosa, heparan sulfate (HS) from bovine kidney, heparin from bovine lung, keratan sulfate (KS) from bovine cornea, and dextran sulfate (DexS) (MW 5×105) were obtained from Sigma Chemical Co. and used at a concentration of 10 μg/ml."}, "[3]": {"tested_on": "Human umbilical vein endothelial cells"}},
  "data": [
    {"molecule": "Cc1ccc(C(=O)Nc2ccc(S(=O)(=O)O)c3cc(S(=O)(=O)O)cc(S(=O)(=O)O)c23)cc1NC(=O)c1cccc(NC(=O)Nc2cccc(C(=O)Nc3cc(C(=O)Nc4ccc(S(=O)(=O)O)c5cc(S(=O)(=O)O)cc(S(=O)(=O)O)c45)ccc3C)c2)c1", "note": "[Suramin]", "values": [
      {"measurement": "effect on infectious titer", "setting": "[1]; Vero cells incubated with compound, washed before exposure to virus", "value": "no effect on infectious titer"},
      {"measurement": "prevention of dengue virus infection of Vero cells", "setting": "[1]; high doses (0-2.5 mg/ml), compound incubated with virus", "value": "completely protective at high doses"},
      {"measurement": "inhibition of envelope protein binding by polyanionic compounds", "setting": "[2]", "value": "inhibited envelope protein binding"}
    ]},
    {"molecule": "[Na+].[O-][Cl+2]([O-])[O-]", "note": "[sodium chlorate]", "values": [
      {"measurement": "envelope protein binding after sulfation inhibition", "setting": "Vero cells", "value": "complete loss of binding"},
      {"measurement": "envelope protein binding after sulfation inhibition", "setting": "[3]", "value": "dose dependent partial inhibition of binding"}
    ]},
    {"molecule": "dextran sulfate [DexS]", "values": [
      {"measurement": "inhibition of envelope protein binding to Vero cells (competitive antagonist)", "setting": "[2]; antagonist 10 μg/ml", "value": "no effect"},
      {"measurement": "inhibition of envelope protein binding to Vero cells (competitive antagonist)", "setting": "[2]; concentrations up to 30 μg/ml", "value": "no inhibitory effect"}
    ]},
    {"molecule": "sulfated lactobionic acid", "values": [
      {"measurement": "inhibition of envelope protein binding by polyanionic compounds", "setting": "[2]", "value": "inhibited envelope protein binding"}
    ]}
  ]
}
